Test results as given in patent US10352935B2, “Tumor cell-derived microvesicles” (The Hospital for Sick Children, priority 2007, dated 2019).

Experiments:
U373vIII tumours = assay: Growth of U373vIII subcutaneous tumours in SCID mice under daily CI-1033; format: in vivo
Description: U373 (human astrocytoma) cells, their stable variant U373vIII expressing Tet-off regulated EGFRvIII or EGFRvIII fused at C-terminus to green fluorescent protein (pEGFPN1) cassette (U373vIII-GFP) and A431 are maintained as described previously (Viloria-Petit et at Am. J. Pathology, 1997, 6:1523-1530; Yu et al., 2005, Blood, 105: 1734-1741) in medium containing microvesicle-depleted fetal bovine serum FBS. HUVEC cells are maintained in EGM-2 (Cambrex Bioscience, Walkesville, Md., USA). Microvesicles are collected from conditioned media or mouse plasma, as previously described (Yu & Rak, J. Thromb. Haemost, 2004, 2:2065-67; Al-Nedawi et al., 2005, Arterioscler. Thromb. Vasc. Biol., 25: 1744-1749). Briefly, media are subjected to two successive centrifugations at 300 g and 12000 g to eliminate cells and debris. Microvesicles are pelleted by ultracentrifugation for 2 hours at 100 000 g and quantified by protein content and analyzed for EGFR or EGFRvIII content. For scanning electron microscopy (SEM) the cells are grown on cover slips, fixed with 2.5% gluteraldehyde, stained with 1% OsO4, covered with gold and visualized using the JEOL 840A instrument. For in vivo analyses tumors are generated by injection of 1-10×10^6 U373vIII or U373 cells into immunodeficient (SCID) mice (Charles River, Canada). […]

A431 tumours = assay: Growth of A431 subcutaneous tumours in mice under daily CI-1033; format: in vivo; settings: 20 mg/kg intraperitoneally, 7 days (FIG. 13A)
[1] = system: Erk1/2 phosphorylation in U373 cells; assay: Microvesicle transfer assay, Erk1/2 phosphorylation in U373 acceptor cells; format: cell-based, human; settings: microvesicles preincubated with agent, 24 hours (FIG. 3A, 3B)
Method: (§1) U373 (acceptor) cells are treated with microvesicles for 24 hours and a single-cell suspension is analyzed by flow cytometry or fluorescent microscopy for expression of EGFRvIII or GFP. […] The expression of microvesicle associated molecules (EGFRvIII, TF), and expression of total and activated MAPK and Akt as well as other changes are assayed by immunoblot (BcIxL, p27/Kip1), ELISA (VEGF, R&D Systems), or promoter activity assays (VEGF), as described elsewhere (Lopez-Ocejo et al. 2000, Oncogene, 40:4611-4620): For soft agar colony formation assays single cell suspensions are prepared in 0.3% agarose from equal numbers of cells pretreated with microvesicles or control media. Cultures are established in plates precoated with 0.5% agarose and all colonies containing more than 4 cells are counted.

[2] = system: VEGF production by U373 cells; assay: Microvesicle transfer assay, VEGF production by U373 cells (ELISA); format: cell-based, human; settings: microvesicles preincubated with CI-1033 (FIG. 4A)
Method: as §1

[3] = system: Akt phosphorylation in U373 cells; assay: Microvesicle transfer assay, Akt phosphorylation in U373 acceptor cells; format: cell-based, human; settings: microvesicles preincubated with annexin V (FIG. 3C)
Method: as §1

[4] = system: VEGF promoter activity in U373 cells; assay: Microvesicle transfer assay, VEGF promoter activity in U373 cells; format: cell-based, human; settings: microvesicles pretreated with annexin V (FIG. 4B)
Method: as §1

[5] = system: BcIxL and p27/Kip1 expression in U373 cells; assay: Microvesicle transfer assay, BcIxL and p27/Kip1 expression in U373 cells (immunoblot); format: cell-based, human; settings: annexin V-mediated blockade of microvesicle uptake
Method: as §1

Row | Compound | Formation/growth of U373vIII subcutaneous tumors (U373vIII tumours; SCID mice, daily doses of CI-1033 (FIG. 1D)) | Tumour response (tumour size) (U373vIII tumours; U373vIII tumours, 20 mg/kg intraperitoneally, daily, 7 days (FIG. 13A)) | Tumour response (tumour size) (A431 tumours) | Erk1/2 phosphorylation induced by U373vIII-derived microvesicles [1] | Release of VEGF induced by U373vIII microvesicles [2] | Akt phosphorylation induced by U373vIII-derived microvesicles [3] | VEGF promoter activity stimulated by EGFRvIII containing microvesicles [4] | Decrease in levels of p27/Kip1 caused by EGFRvIII-containing microvesicles [5] | Increase in expression of BcIxL caused by EGFRvIII-containing microvesicles [5]
1 | C=CC(=O)Nc1cc2c(Nc3ccc(F)c(Cl)c3)ncnc2cc1OCCCN1CCOCC1 [CI-1033] | susceptible to inhibition | responsive | responsive | markedly reduced | unable to induce this release of VEGF | – | – | – | –
2 | annexin V: blocks exposed phosphatidylserine residues of microvesicles and thereby their uptake by U373 cells | – | – | – | abrogated | – | inhibitable | abrogated | inhibited | inhibited
